Test results as given in patent publication US12545672B2, “Antibiotic compounds, methods of manufacturing the same, pharmaceutical compositions containing the same and uses thereof” (Debiopharm International S.A., priority 2018, dated 2026).
Read-outs that look alike come from different tables or passages of the source.

Legend:
Neisseria gonorrhoeae = assay: MIC50 by CLSI agar dilution on a panel of N. gonorrhoeae clinical isolates; type: cell-based; settings: Neisseria gonorrhoeae
Method: MIC50: MICs were determined in accordance with the appropriate Clinical and Laboratory Standards Institute (CLSI) methodology by the agar dilution susceptbility testing method in GC agar base.

[1] = biological target: Neisseria gonorrhoeae FabI (Neisseria gonorrhoeae, UniProt A0ACH0F547); assay: Neisseria gonorrhoeae FabI inhibition assay (NADH consumption)
Neisseria gonorrhoeae FabI, sequence (A0ACH0F547 1-261): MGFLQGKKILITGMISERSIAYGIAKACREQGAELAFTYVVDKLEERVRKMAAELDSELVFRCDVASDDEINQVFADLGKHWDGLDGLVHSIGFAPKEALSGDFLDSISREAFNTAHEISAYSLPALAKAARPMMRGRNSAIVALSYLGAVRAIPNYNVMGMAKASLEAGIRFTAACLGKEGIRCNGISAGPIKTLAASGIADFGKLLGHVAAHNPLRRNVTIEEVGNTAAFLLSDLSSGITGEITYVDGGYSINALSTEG

[2] = agar dilution, GC agar base, minimum of 15 clinical isolates, read-out: MIC50

MIC50 (Neisseria gonorrhoeae; [2]) [µg/mL] | IC50 [1] [µM] | Compound | MIC50 (Neisseria gonorrhoeae) [µg/mL]
< 1 | < 0.01 | Cc1oc2c(Oc3ccc4c(c3)CCN4)cccc2c1CN(C)C(=O)/C=C/c1cnc2c(c1)CCCC(=O)N2 [Compound 180, (E)-N-((7-(indolin-5-yloxy)-2-methylbenzofuran-3-yl)methyl)-N-methyl-3-(8-oxo-6,7,8,9-tetrahydro-5H-pyrido[2,3-b]azepin-3-yl)acrylamide] | 
< 1 | < 0.01 | Cc1c(CN(C)C(=O)/C=C/c2cnc3c(c2)C=C[C@@](C)(O)C(=O)N3)oc2ccccc12 (single isomer, unassigned) [Compound 260] | 
< 1 | < 0.01 | Cc1c(CN(C)C(=O)/C=C/c2cnc3c(c2)NC[C@@H](O)C(=O)N3)oc2ccccc12 [Compound 229, (R,E)-3-(3-Hydroxy-4-oxo-2,3,4,5-tetrahydro-1H-pyrido[2,3-b][1,4]diazepin-8-yl)-N-methyl-N-((3-methylbenzofuran-2-yl)methyl)acrylamide] | 
< 1 | < 0.01 | Cc1c(CN(C)C(=O)/C=C/c2cnc3c(c2)NC[C@@](C)(CO)C(=O)N3)oc2ccccc12 [Compound 32, (S,E)-3-(3-(hydroxymethyl)-3-methyl-4-oxo-2,3,4,5-tetrahydro-1H-pyrido[2,3-b][1,4]diazepin-8-yl)-N-methyl-N-((3-methylbenzofuran-2-yl)methyl)acrylamide] | 
< 1 | < 0.01 | Cc1oc2ccccc2c1CN(C)C(=O)/C=C/c1cnc2c(c1)NC[C@](C)(CO)C(=O)N2 (single isomer, unassigned) [Compound 41] | 
< 1 | < 0.01 | Cc1oc2ccccc2c1CN(C)C(=O)/C=C/c1cnc2c(c1)NCCC(=O)N2 [Compound 170, (E)-N-Methyl-N-((2-methylbenzofuran-3-yl)methyl)-3-(4-oxo-2,3,4,5-tetrahydro-1H-pyrido[2,3-b][1,4]diazepin-8-yl)acrylamide] | 
< 1 | < 0.01 | Cc1oc2ccccc2c1CN(C)C(=O)/C=C/c1cnc2c(c1)NC1(CCOCC1)C(=O)N2 [Compound 64, (E)-N-Methyl-N-((2-methylbenzofuran-3-yl)methyl)-3-(3′-oxo-2,3,3′,4′,5,6-hexahydro-1′H-spiro[pyran-4,2′-pyrido[2,3-b]pyrazin]-7′-yl)acrylamide] | 
< 1 | < 0.01 | Cc1oc2ccccc2c1CN(C)C(=O)/C=C/c1cnc2c(c1)N[C@H](C)[C@H](O)C(=O)N2 (single isomer, unassigned) [Compound 151] | 
< 1 | < 0.01 | Cc1c(CN(C)C(=O)/C=C/c2cnc3c(c2)NCC(C)(CO)C(=O)N3)oc2ccccc12 (stereo not drawn) [Compound 31, (E)-3-(3-(hydroxymethyl)-3-methyl-4-oxo-2,3,4,5-tetrahydro-1H-pyrido[2,3-b][1,4]diazepin-8-yl)-N-methyl-N-((3-methylbenzofuran-2-yl)methyl)acrylamide] | 
< 1 | < 0.01 | CCC1(O)Cc2cc(/C=C/C(=O)N(C)Cc3oc4ccccc4c3C)cnc2NC1=O (stereo not drawn) [Compound 252, (E)-3-(6-ethyl-6-hydroxy-7-oxo-5,6,7,8-tetrahydro-1,8-naphthyridin-3-yl)-N-methyl-N-((3-methylbenzofuran-2-yl)methyl)acrylamide] | 
< 1 | < 0.01 | Cc1c(CN(C)C(=O)/C=C/c2cnc3c(c2)NCCC(=O)N3)oc2cccc(N)c12 [Compound 7, (E)-N-((4-amino-3-methylbenzofuran-2-yl)methyl)-N-methyl-3-(4-oxo-2,3,4,5-tetrahydro-1H-pyrido[2,3-b][1,4]diazepin-8-yl)acrylamide] | 
< 1 | < 0.01 | Cc1oc2c(Oc3ccc4c(c3)OCC4)cccc2c1CN(C)C(=O)/C=C/c1cnc2c(c1)NC[C@@](C)(O)C(=O)N2 [Compound 182, (R,E)-N-((7-((2,3-dihydrobenzofuran-6-yl)oxy)-2-methylbenzofuran-3-yl)methyl)-3-(3-hydroxy-3-methyl-4-oxo-2,3,4,5-tetrahydro-1H-pyrido[2,3-b][1,4]diazepin-8-yl)-N-methylacrylamide] | 
< 1 | < 0.01 | C[C@@]1(O)CNc2cc(/C=C/C(=O)N3C[C@H]4CC(c5ccc(Oc6ccccc6)cc5)=C[C@H]4C3)cnc2NC1=O [Compound 159, (R)-3-hydroxy-3-methyl-8-((E)-3-oxo-3-((3aS,6aR)-5-(4-phenoxyphenyl)-3,3a,4,6a-tetrahydrocyclopenta[c]pyrrol-2(1H)-yl)prop-1-en-1-yl)-1,2,3,5-tetrahydro-4H-pyrido[2,3-b][1,4]diazepin-4-one] | 
< 1 | < 0.01 | Cc1c(CN(C)C(=O)/C=C/c2cnc3c(c2)NCC(=O)N3)oc2ccccc12 [Compound 10, (E)-N-methyl-N-((3-methylbenzofuran-2-yl)methyl)-3-(3-oxo-1,2,3,4-tetrahydropyrido[2,3-b]pyrazin-7-yl)acrylamide] | 
< 1 | < 0.01 | Cc1c(CN(C)C(=O)/C=C/c2cnc3c(c2)NC(C)(CO)C(=O)N3)oc2ccccc12 (stereo not drawn) [Compound 84, (E)-3-(2-(Hydroxymethyl)-2-methyl-3-oxo-1,2,3,4-tetrahydropyrido[2,3-b]pyrazin-7-yl)-N-methyl-N-((3-methylbenzofuran-2-yl)methyl)acrylamide] | 
< 1 | < 0.01 | Cc1oc2c(N)cccc2c1CN(C)C(=O)/C=C/c1cnc2c(c1)NCC(C)(C)C(=O)N2 [Compound 109, (E)-N-((7-Amino-2-methylbenzofuran-3-yl)methyl)-3-(3,3-dimethyl-4-oxo-2,3,4,5-tetrahydro-1H-pyrido[2,3-b][1,4]diazepin-8-yl)-N-methylacrylamide] | 
< 1 | < 0.01 | Cc1c(CN(C)C(=O)/C=C/c2cnc3c(c2)NC[C@H](O)C(=O)N3)oc2ccccc12 [Compound 230, (S,E)-3-(3-Hydroxy-4-oxo-2,3,4,5-tetrahydro-1H-pyrido[2,3-b][1,4]diazepin-8-yl)-N-methyl-N-((3-methylbenzofuran-2-yl)methyl)acrylamide] | 
< 1 | < 0.01 | Cc1c(CN(C)C(=O)/C=C/c2cnc3c(c2)CCCC(=O)N3)oc2cccc(N)c12 [Compound 5, (E)-N-((4-amino-3-methylbenzofuran-2-yl)methyl)-N-methyl-3-(8-oxo-6,7,8,9-tetrahydro-5H-pyrido[2,3-b]azepin-3-yl)acrylamide] | 
< 1 | < 0.01 | Cc1oc2ccccc2c1CN(C)C(=O)/C=C/c1cnc2c(c1)NC[C@@](C)(CO)C(=O)N2 (single isomer, unassigned) [Compound 40] | 
< 1 | < 0.01 | O=C1CCNc2cc(/C=C/C(=O)N3C[C@H]4CC(c5ccc(Oc6ncccn6)cc5)=C[C@H]4C3)cnc2N1 [Compound 60, 8-((E)-3-Oxo-3-((3aS,6aR)-5-(4-(pyrimidin-2-yloxy)phenyl)-3,3a,4,6a-tetrahydrocyclopenta[c]pyrrol-2(1H)-yl)prop-1-en-1-yl)-1,2,3,5-tetrahydro-4H-pyrido[2,3-b][1,4]diazepin-4-one] | 
< 1 | < 0.01 | Cc1c(CN(C)C(=O)/C=C/c2cnc3c(c2)N[C@H](C)CC(=O)N3)oc2ccccc12 [Compound 214, (E)-N-methyl-N-[(3-methylbenzofuran-2-yl)methyl]-3-[(2R)-2-methyl-4-oxo-1,2,3,5-tetrahydropyrido[2,3-b][1,4]diazepin-8-yl]prop-2-enamide] | 
< 1 | < 0.01 | Cc1c(CN(C)C(=O)/C=C/c2cnc3c(c2)NC(C)(C)C(=O)N3)oc2ccccc12 [Compound 19, (E)-3-(2,2-dimethyl-3-oxo-1,2,3,4-tetrahydropyrido[2,3-b]pyrazin-7-yl)-N-methyl-N-((3-methylbenzofuran-2-yl)methyl)acrylamide] | 
< 1 | < 0.01 | Cc1oc2c(N)cccc2c1CN(C)C(=O)/C=C/c1cnc2c(c1)NCCC(=O)N2 [Compound 75, (E)-N-((7-Amino-2-methylbenzofuran-3-yl)methyl)-N-methyl-3-(4-oxo-2,3,4,5-tetrahydro-1H-pyrido[2,3-b][1,4]diazepin-8-yl)acrylamide] | 
< 1 | < 0.01 | Cc1oc2c(N)cccc2c1CN(C)C(=O)/C=C/c1cnc2c(c1)NC[C@@](C)(O)C(=O)N2 [Compound 167, (R,E)-N-((7-amino-2-methylbenzofuran-3-yl)methyl)-3-(3-hydroxy-3-methyl-4-oxo-2,3,4,5-tetrahydro-1H-pyrido[2,3-b][1,4]diazepin-8-yl)-N-methylacrylamide] | 
< 1 | < 0.01 | Cc1c(CN(C)C(=O)/C=C/c2cnc3c(c2)NCC(CO)C(=O)N3)oc2ccccc12 (stereo not drawn) [Compound 270, (E)-3-(3-(hydroxymethyl)-4-oxo-2,3,4,5-tetrahydro-1H-pyrido[2,3-b][1,4]diazepin-8-yl)-N-methyl-N-((3-methylbenzofuran-2-yl)methyl)acrylamide] | 
 | < 0.01 | Cc1c(CN(C)C(=O)/C=C/c2cnc3c(c2)N[C@H](C)[C@@](C)(O)C(=O)N3)oc2ccccc12 (racemic) [Compound 207, (E)-3-(3-hydroxy-2,3-dimethyl-4-oxo-2,3,4,5-tetrahydro-1H-pyrido[2,3-b][1,4]diazepin-8-yl)-N-methyl-N-((3-methylbenzofuran-2-yl)methyl)acrylamide] | 
< 1 |  | Cc1c(CN(C)C(=O)/C=C/c2cnc3c(c2)N[C@H](C)[C@@](C)(O)C(=O)N3)oc2ccccc12 [Compound 207, (E)-3-(3-hydroxy-2,3-dimethyl-4-oxo-2,3,4,5-tetrahydro-1H-pyrido[2,3-b][1,4]diazepin-8-yl)-N-methyl-N-((3-methylbenzofuran-2-yl)methyl)acrylamide] | 

Compound | MIC50 (Neisseria gonorrhoeae; [2]) [µg/mL] | IC50 [1] [µM] | MIC50 (Neisseria gonorrhoeae) [µg/mL]
Cc1c(CN(C)C(=O)/C=C/c2cnc3c(c2)C[C@@](C)(O)C(=O)N3)oc2ccccc12 (single isomer, unassigned) [Compound 247] |  | < 0.01 | < 1
